PMC4134960 (Pharmacological research : the official journal of the …, 2014)

Legend:
FAAH = biological target: T1, FAAH (Mus musculus, UniProt O08914); conditions: inhibition of brain FAAH activity after systemic administration in mice; ref Moreno-Sanz et al., 2013; cited from earlier work
T1 sequence (O08914 1-579): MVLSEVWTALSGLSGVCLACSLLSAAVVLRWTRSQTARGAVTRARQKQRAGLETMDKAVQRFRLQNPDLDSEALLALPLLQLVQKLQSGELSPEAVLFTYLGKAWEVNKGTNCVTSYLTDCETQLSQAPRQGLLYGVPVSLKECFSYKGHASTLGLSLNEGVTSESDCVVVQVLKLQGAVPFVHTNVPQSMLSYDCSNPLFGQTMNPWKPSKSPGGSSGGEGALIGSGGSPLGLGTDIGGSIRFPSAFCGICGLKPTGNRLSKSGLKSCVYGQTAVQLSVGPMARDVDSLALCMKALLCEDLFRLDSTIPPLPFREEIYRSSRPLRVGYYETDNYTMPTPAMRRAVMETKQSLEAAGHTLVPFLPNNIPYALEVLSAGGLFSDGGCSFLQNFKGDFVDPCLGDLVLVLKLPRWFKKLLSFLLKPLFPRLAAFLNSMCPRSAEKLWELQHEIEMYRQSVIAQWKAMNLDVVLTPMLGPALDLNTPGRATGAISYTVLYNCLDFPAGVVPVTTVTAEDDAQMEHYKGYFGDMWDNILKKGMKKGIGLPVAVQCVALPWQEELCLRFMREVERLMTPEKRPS

wild-type MDCKII cells = experiment: Transepithelial transport in monolayers of wild-type MDCKII cells
[1] = ref Moreno-Sanz et al., 2013; cited from earlier work
human ABCB1 = human ABCB1 (Homo sapiens, UniProt P08183); experiment: Transepithelial transport in monolayers of MDCKII cells over-expressing ABCB1; conditions: for A to B transport (percentage of drug appearing in the opposite compartment) / B to A transport (percentage of drug appearing in the opposite compartment) / Ratio BA/AB (relative transport ratio): MDCKII over-expressing ABCB1, after 4h, 5 μM (compound 8: 1 μM); for Vectorial transport by ABCB1 (in words): MDCKII transduced with human ABCB1
murine Abcg2 = biological target: T2, murine Abcg2 (Mus musculus, UniProt Q7TMS5); experiment: Transepithelial transport in monolayers of MDCKII cells over-expressing Abcg2; type: in vitro ADME
T2 sequence (Q7TMS5 1-657): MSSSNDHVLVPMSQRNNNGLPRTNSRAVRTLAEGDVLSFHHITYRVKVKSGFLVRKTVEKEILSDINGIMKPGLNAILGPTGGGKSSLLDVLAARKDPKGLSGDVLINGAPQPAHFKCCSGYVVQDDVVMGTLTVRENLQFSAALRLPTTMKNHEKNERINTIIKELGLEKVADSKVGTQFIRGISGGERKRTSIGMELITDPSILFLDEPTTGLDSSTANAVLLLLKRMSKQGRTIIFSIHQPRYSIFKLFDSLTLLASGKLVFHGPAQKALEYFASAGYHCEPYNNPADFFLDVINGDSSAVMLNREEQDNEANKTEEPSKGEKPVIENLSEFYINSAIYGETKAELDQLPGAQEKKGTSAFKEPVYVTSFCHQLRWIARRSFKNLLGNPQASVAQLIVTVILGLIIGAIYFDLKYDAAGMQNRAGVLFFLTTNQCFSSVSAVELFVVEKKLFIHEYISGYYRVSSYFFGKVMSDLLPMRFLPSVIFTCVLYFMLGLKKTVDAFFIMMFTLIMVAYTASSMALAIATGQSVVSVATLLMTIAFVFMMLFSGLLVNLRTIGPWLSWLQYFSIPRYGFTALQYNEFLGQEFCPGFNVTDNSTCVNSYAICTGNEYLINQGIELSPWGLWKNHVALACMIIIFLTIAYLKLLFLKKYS

[2] = Transepithelial transport in monolayers of wild-type MDCKII cells; conditions: dog, MDCK, Ratio BA/AB (relative transport ratio), after 4h, 5 μM (compound 8: 1 μM)
Abcg2 = biological target: T3, Abcg2 (Mus musculus, UniProt Q7TMS5); experiment: Transepithelial transport in monolayers of MDCKII cells over-expressing Abcg2; type: in vitro ADME, murine; conditions: mouse, Ratio BA/AB (relative transport ratio), MDCKII over-expressing Abcg2, after 4h, 5 μM (compound 8: 1 μM)
T3 sequence (Q7TMS5 1-657): T2 sequence (Q7TMS5 1-657)

[3] = after 4h, 5 μM (compound 8: 1 μM)
[4] = MDCKII over-expressing Abcg2, after 4h, 5 μM (compound 8: 1 μM)

Chain of human ABCB1 (P08183 whole entry): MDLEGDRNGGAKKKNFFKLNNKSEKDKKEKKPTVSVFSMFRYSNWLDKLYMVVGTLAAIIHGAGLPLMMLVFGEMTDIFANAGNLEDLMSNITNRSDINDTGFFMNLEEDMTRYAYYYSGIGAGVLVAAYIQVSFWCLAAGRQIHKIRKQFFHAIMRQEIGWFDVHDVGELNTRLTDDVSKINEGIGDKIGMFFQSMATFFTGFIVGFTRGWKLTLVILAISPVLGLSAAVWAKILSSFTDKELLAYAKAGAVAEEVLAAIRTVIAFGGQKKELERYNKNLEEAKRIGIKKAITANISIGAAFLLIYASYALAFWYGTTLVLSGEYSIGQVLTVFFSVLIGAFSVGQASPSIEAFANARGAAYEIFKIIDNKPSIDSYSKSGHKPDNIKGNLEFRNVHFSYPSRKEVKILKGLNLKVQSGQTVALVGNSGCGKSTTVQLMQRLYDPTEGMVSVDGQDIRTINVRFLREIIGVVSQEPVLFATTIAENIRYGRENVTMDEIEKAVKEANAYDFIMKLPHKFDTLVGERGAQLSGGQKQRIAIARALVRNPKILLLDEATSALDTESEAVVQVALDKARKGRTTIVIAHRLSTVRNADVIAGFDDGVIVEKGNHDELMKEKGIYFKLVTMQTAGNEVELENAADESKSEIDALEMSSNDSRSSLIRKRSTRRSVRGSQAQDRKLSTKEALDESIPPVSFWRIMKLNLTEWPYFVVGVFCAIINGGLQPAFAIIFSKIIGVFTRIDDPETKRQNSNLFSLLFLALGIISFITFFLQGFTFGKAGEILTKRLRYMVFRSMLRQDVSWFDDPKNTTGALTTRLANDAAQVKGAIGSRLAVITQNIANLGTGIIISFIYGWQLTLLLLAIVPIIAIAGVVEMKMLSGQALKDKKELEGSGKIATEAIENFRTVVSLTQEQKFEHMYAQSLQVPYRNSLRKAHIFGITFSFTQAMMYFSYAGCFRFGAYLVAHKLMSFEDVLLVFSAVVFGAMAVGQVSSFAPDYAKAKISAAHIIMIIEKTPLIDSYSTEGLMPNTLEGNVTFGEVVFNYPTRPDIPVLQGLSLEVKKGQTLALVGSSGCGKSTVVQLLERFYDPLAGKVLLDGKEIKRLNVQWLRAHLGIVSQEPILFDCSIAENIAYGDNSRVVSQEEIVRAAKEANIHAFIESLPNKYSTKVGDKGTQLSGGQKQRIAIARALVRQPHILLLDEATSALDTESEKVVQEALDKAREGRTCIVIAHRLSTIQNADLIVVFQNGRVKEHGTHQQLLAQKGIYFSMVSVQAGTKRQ

Structure (SMILES)	Brain ID50 (FAAH)	Translocation in apical or basolateral direction (in words) (wild-type MDCKII cells)	A to B transport (percentage of drug appearing in the opposite compartment) (wild-type MDCKII cells; [3])	B to A transport (percentage of drug appearing in the opposite compartment) (wild-type MDCKII cells; [3])	PSA (polar surface area) [1]	A to B transport (percentage of drug appearing in the opposite compartment) (human ABCB1)	B to A transport (percentage of drug appearing in the opposite compartment) (human ABCB1)	Ratio BA/AB (relative transport ratio) (human ABCB1)	Vectorial transport by ABCB1 (in words) (human ABCB1)	A to B transport (percentage of drug appearing in the opposite compartment) (murine Abcg2; [4])	B to A transport (percentage of drug appearing in the opposite compartment) (murine Abcg2; [4])	efflux ratio at 4 h [2]	Ratio BA/AB (relative transport ratio) (wild-type MDCKII cells; [3])	efflux ratio at 4 h (Abcg2)	Transport substrate for Abcg2 (in words) (murine Abcg2; MDCKII over-expressing Abcg2)	Ratio BA/AB (relative transport ratio) (murine Abcg2; [4])	Effect of inhibitor on translocation of all compounds (in words) (murine Abcg2; MDCKII over-expressing Abcg2, Ko143 1 μM)
O=C(NC1CCCCC1)Oc1ccc(O)c(-c2cccc(C(=O)O)c2)c1 [Compound 4]	12 mg/kg	minimal translocation in either the apical or basolateral direction	4.93 ± 0.88%	5.21 ± 0.42%	77 Å^2												
COc1ccc(OC(=O)NC2CCCCC2)cc1-c1cccc(C(N)=O)c1 [Compound 7]			29.3 ± 0.44%	37.1 ± 1.48%	74 Å^2	21.6 ± 0.55%	45.1 ± 3.61%	2.08 ± 0.11	no significant vectorial transport	7.29 ± 1.30 %	98.8 ± 16.6%						
Cc1ccc(OC(=O)NC2CCCCC2)cc1-c1cccc(C(N)=O)c1 [Compound 8, cyclohexylcarbamic acid 3′-carbamoyl-6-methylbiphenyl-3-yl ester]			26.0 ± 1.52%	27.3 ± 3.8%	66 Å^2	20.7 ± 1.00%	35.8 ± 0.43%		no significant vectorial transport	5.59 ± 0.58 %	64.8 ± 4.87%	~1	1.06 ± 0.15	≥ 10			
CC(=O)c1cccc(-c2cc(OC(=O)NC3CCCCC3)ccc2O)c1 [Compound 3]	<1 mg/kg		39.4 ± 0.54%	46.8 ± 2.73%	62 Å^2	39.8 ± 1.88%	57.6 ± 7.90%	1.44 ± 0.13	no significant vectorial transport	24.5 ± 2.39 %	30.5 ± 0.75%				did not behave as a transport substrate for Abcg2	1.25 ± 0.13	
COc1ccc2c3c([nH]c2c1)[C@H](CC(C)C)N1C(=O)[C@H](CCC(=O)OC(C)(C)C)NC(=O)[C@@H]1C3 [Ko143, reference compound]																	blocked
CNC(=O)c1cccc(-c2cc(OC(=O)NC3CCCCC3)ccc2O)c1 [Compound 1]			21.7 ± 0.96%	48.1 ± 2.33%	73 Å^2	8.55 ± 1.79%	67.4 ± 14.5%			6.99 ± 0.99 %	69.8 ± 16.9%						
N.NC(=O)c1cccc(-c2cc(OC(=O)NC3CCCCC3)ccc2OS(=O)(=O)O)c1 [Compound 9]	>75 mg/kg	minimal translocation in either the apical or basolateral direction	7.92 ± 0.41%	7.49 ± 0.39%	117 Å^2												
CN(C)C(=O)c1cccc(-c2cc(OC(=O)NC3CCCCC3)ccc2O)c1 [Compound 2]	5 mg/kg		25.6 ± 1.96%	43.1 ± 4.48%	65 Å^2	8.86 ± 0.95%	58.6 ± 3.85%	6.65 ± 0.36		6.95 ± 0.42 %	91.0 ± 12.7%						
